Experimental data as given in BindingDB's records for doi:10.1111/cbdd.12863 (Guangzhou Institutes of Biomedicine and Health, Chinese …, 2017).

Key:
[1] = target: Epithelial discoidin domain-containing receptor 1 (Homo sapiens, UniProt Q08345); assay: LanthaScreen Eu Kinase Activity Assay; details: pH 7.5; 25 °C
Protocol: (§1) The effects of compounds on the kinases DDR1 and DDR2 were assessed by using a LanthaScreen Eu kinase activity assay technology (Invitrogen, Carlsbad, CA, USA). […] Reaction buffer for the kinase reaction consists of 50 mm HEPES pH 7.5, 0.01% BRIJ-35, 10 mm MgCl2, and 1 mm EGTA. The concentration of fluorescein-polyGAT substrate (Invitrogen) in the assay was […] reactions were initiated with the addition of […] in the presence of serial dilutions of compounds. The reactions were allowed to proceed for 1 hour at room temperature before a 10 μL preparation of EDTA (20 mm) and Eu-labeled antibody (4 nm) in TR-FRET dilution buffer was added. The final concentration of antibody in the assay well was 2 nm, and the final concentration of EDTA was 10 mm.

[2] = target: T1, Discoidin domain-containing receptor 2 (Homo sapiens, UniProt Q16832); assay: LanthaScreen Eu Kinase Activity Assay; details: pH 7.5; 25 °C
T1 sequence (Q16832 whole entry): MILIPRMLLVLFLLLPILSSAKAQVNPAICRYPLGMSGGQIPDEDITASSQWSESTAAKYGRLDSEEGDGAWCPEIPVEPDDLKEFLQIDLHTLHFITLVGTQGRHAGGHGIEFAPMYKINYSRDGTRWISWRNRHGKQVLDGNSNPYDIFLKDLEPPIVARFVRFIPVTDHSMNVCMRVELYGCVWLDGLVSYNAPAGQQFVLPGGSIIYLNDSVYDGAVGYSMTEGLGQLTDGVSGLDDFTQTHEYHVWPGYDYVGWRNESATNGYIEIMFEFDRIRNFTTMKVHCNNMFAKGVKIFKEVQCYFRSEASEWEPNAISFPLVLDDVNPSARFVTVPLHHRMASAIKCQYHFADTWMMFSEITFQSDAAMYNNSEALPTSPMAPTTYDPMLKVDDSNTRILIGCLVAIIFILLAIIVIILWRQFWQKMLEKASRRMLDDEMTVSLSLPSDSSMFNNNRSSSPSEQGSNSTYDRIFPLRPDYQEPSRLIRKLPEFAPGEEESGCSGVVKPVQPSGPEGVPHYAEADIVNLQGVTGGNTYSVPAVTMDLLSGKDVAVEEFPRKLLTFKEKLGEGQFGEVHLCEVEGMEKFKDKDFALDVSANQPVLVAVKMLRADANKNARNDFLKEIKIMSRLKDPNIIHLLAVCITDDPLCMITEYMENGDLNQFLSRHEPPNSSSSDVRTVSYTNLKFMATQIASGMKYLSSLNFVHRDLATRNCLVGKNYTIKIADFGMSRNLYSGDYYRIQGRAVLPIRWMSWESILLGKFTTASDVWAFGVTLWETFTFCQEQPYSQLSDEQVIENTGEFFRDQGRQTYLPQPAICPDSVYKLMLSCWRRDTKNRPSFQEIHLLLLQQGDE
Protocol: as §1

Epithelial discoidin domain-containing receptor 1, sequence (Q08345 whole entry, the tested form may be a part): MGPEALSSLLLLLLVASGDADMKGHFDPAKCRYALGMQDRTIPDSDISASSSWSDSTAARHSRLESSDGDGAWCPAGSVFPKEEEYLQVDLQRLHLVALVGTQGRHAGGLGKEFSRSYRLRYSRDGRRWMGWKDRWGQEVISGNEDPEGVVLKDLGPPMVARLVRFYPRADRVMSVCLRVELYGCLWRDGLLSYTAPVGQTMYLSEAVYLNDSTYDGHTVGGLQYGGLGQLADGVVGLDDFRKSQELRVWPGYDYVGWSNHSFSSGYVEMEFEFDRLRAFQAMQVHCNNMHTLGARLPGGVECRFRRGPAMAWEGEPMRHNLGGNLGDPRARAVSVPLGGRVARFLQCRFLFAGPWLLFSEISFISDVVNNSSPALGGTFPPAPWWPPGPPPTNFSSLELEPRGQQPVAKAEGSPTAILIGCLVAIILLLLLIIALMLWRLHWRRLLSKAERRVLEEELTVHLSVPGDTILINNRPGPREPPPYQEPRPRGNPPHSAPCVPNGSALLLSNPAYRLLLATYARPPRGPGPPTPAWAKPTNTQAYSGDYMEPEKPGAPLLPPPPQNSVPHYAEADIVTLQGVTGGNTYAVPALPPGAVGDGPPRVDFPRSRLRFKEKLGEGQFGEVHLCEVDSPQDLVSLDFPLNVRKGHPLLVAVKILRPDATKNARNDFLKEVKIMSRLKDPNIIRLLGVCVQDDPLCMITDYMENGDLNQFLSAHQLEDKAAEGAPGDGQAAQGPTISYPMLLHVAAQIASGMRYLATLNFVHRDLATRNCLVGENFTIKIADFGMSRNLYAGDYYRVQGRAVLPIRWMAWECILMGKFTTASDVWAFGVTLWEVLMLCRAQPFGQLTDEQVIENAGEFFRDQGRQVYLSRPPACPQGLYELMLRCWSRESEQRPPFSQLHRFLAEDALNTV

In the case of `Cc1nc(Nc2ncc(C(=O)Nc3c(C)cccc3Cl)s2)cc(C2CCN(C(=O)Oc3ccccc3)C2)n1` (configuration not stated) [Phenyl 3-(6-((5-((2-chloro-6-methylphenyl)carbamoyl)thiazol-2-yl)amino)-2-methylpyrimidin-4-yl)pyrrolidine-1-carboxylate (5g)], the IC50 [1] is reported as 7.51 nM and the IC50 [2] is reported as 59.9 nM.
